Converted amounts (≈) assume the structure as drawn.
Columns and labels:
Klebsiella pneumoniae 17 = experiment: in vitro MIC, standard tube dilution method; type: cell-based; conditions: Mueller-Hinton broth, read-out: minimal inhibitory concentration (MIC)
From the text: (§1) In Table 1, set forth below is shown the in vitro minimal inhibitory concentration (MIC) of gentamicin C2a against representative gram-positive and gram-negative bacteria. The results are derived using the standard tube dilution method in Mueller-Hinton broth.

[1] = tested on: Escherichia coli ATCC 10536; experiment: in vitro MIC, standard tube dilution method; type: cell-based; conditions: ATCC10536, Mueller-Hinton broth, read-out: minimal inhibitory concentration (MIC)
From the text: as §1

[2] = tested on: Escherichia coli La290R55; experiment: in vitro MIC, standard tube dilution method; type: cell-based; conditions: LA290R55, read-out: minimal inhibitory concentration (MIC)
From the text: as §1

Bacillus subtilis 663 = experiment: in vitro MIC, standard tube dilution method; type: cell-based; conditions: Mueller-Hinton broth, read-out: minimal inhibitory concentration (MIC)
From the text: as §1

Escherichia coli JR66 = experiment: in vitro MIC, standard tube dilution method; type: cell-based; conditions: Mueller-Hinton broth, read-out: minimal inhibitory concentration (MIC)
From the text: as §1

Salmonella typhi. B. = experiment: in vitro MIC, standard tube dilution method; type: cell-based; conditions: Salmonella enterica, read-out: minimal inhibitory concentration (MIC)
From the text: as §1

[3] = tested on: Pseudomonas aeruginosa 20; experiment: in vitro MIC, standard tube dilution method; type: cell-based; conditions: Mueller-Hinton broth, read-out: minimal inhibitory concentration (MIC)
From the text: as §1

[4] = tested on: Pseudomonas aeruginosa 3223; experiment: in vitro MIC, standard tube dilution method; type: cell-based; conditions: Mueller-Hinton broth, read-out: minimal inhibitory concentration (MIC)
From the text: as §1

[5] = tested on: Staphylococcus aureus 59N; experiment: in vitro MIC, standard tube dilution method; type: cell-based; conditions: Mueller-Hinton broth, read-out: minimal inhibitory concentration (MIC)
From the text: as §1

Streptococcus pyogenes C = experiment: in vitro MIC, standard tube dilution method; type: cell-based; conditions: Mueller-Hinton broth, read-out: minimal inhibitory concentration (MIC)
From the text: as §1

[6] = tested on: Staphylococcus aureus Ziegler; experiment: in vitro MIC, standard tube dilution method; type: cell-based; conditions: Mueller-Hinton broth, read-out: minimal inhibitory concentration (MIC)
From the text: as §1

[7] = tested on: Klebsiella pneumoniae 3694; experiment: in vitro MIC, standard tube dilution method; type: cell-based; conditions: Mueller-Hinton broth, read-out: minimal inhibitory concentration (MIC)
From the text: as §1

[8] = tested on: Pseudomonas aeruginosa Travers; experiment: in vitro MIC, standard tube dilution method; type: cell-based; conditions: Pseudomonas aeruginosa Travers (Gentamicin resistant); Mueller-Hinton broth; read-out: minimal inhibitory concentration (MIC)
From the text: as §1

[9] = tested on: Pseudomonas aeruginosa 762; experiment: in vitro MIC, standard tube dilution method; type: cell-based; conditions: Mueller-Hinton broth, read-out: minimal inhibitory concentration (MIC)
From the text: as §1

[10] = tested on: Pseudomonas aeruginosa St 138; experiment: in vitro MIC, standard tube dilution method; type: cell-based; conditions: ST138; Pseudomonas aeruginosa St 138 (Gentamicin resistant); Mueller-Hinton broth; read-out: minimal inhibitory concentration (MIC)
From the text: as §1

[11] = tested on: Staphylococcus aureus 6538P; experiment: in vitro MIC, standard tube dilution method; type: cell-based; conditions: Mueller-Hinton broth, read-out: minimal inhibitory concentration (MIC)
From the text: as §1

[12] = acute intravenous LD50 in mice; conditions: mouse, in vivo, male CF-1 mice, 20 grams each
[13] = tested on: gram-positive and gram-negative bacteria; experiment: antibacterial spectrum in vitro; type: cell-based; conditions: compared with gentamicin C1, C1a, and C2
From the text: Thus, the antiobiotic may be used for substantially the same anti-bacterial indications and in the same manner as disclosed in U.S. Pat. No. 3,091,572. For example, it is useful in wash solutions, for sanitary purposes, as in the washing of hands and the cleaning of equipment in contaminated rooms.
as §1

SMILES | MIC (Klebsiella pneumoniae 17) [µg/mL] | MIC [1] [µg/mL] | MIC [2] [µg/mL] | MIC (Bacillus subtilis 663) [µg/mL] | MIC (Escherichia coli JR66) [µg/mL] | MIC (Salmonella typhi. B.) [µg/mL] | MIC [3] [µg/mL] | MIC [4] [µg/mL] | MIC [5] [µg/mL] | MIC (Streptococcus pyogenes C) [µg/mL] | MIC [6] [µg/mL] | MIC [7] [µg/mL] | MIC [8] [µg/mL] | MIC [9] [µg/mL] | MIC [10] [µg/mL] | MIC [11] [µg/mL] | LD50 [12] [mg/kg] | antibacterial spectrum in vitro [13]
CN[C@@H]1[C@@H](O)[C@@H](O[C@@H]2[C@@H](O)[C@H](O[C@H]3O[C@H]([C@H](C)N)CC[C@H]3N)[C@@H](N)C[C@H]2N)OC[C@]1(C)O [gentamicin C2a] | 0.8 (≈ 1.73 µM) | 0.3 (≈ 0.647 µM) | 17.5 (≈ 37.8 µM) | 0.1 (≈ 0.216 µM) | 7.5 (≈ 16.2 µM) | 0.3 (≈ 0.647 µM) | 3 (≈ 6.47 µM) | 0.3 (≈ 0.647 µM) | 0.3 (≈ 0.647 µM) | 7.5 (≈ 16.2 µM) | 0.3 (≈ 0.647 µM) | 17.5 (≈ 37.8 µM) | > 25 | 0.8 (≈ 1.73 µM) | > 25 | 0.3 (≈ 0.647 µM) | 110 | substantially the same antibacterial spectrum in vitro as do gentamicin C1, C1a, and C2
CN[C@@H]1[C@@H](O)[C@@H](O[C@@H]2[C@@H](O)[C@H](O[C@H]3O[C@H]([C@@H](C)N)CC[C@H]3N)[C@@H](N)C[C@H]2N)OC[C@]1(C)O [gentamicin C2] | – | – | – | – | – | – | – | – | – | – | – | – | – | – | – | – | 83 | –

— US3984395A, “Method of isolating gentamicin C2a” (Schering Corporation, priority 1974, dated 1976)
